According to patent publication US10696971B2, “MrgprX2/MrgprB2 expressing cell based assay to detect pseudo-allergic drug reactions and to identify blockers to prevent the adverse reactions” (The Johns Hopkins University, priority 2014, dated 2020):
“Also recorded” adds a separate entry of the source.

Experiments:
WT and MrgprB2^MUT mice = experiment: Hindpaw swelling and Evans Blue extravasation; format: in vivo, mouse
Description: Adult male mice up to 8 months of age were anesthetized with an i.p. injection of 50 mg/kg pentobarbital (Sigma). 15 minutes after induction of anesthesia, mice were injected i.v. with 50 μl of 12.5 mg/ml Evans Blue (Sigma) in saline. 5 minutes later, 5 μl of the test substance (or 7 μl of anti-IgE) was administered by intraplantar injection in one paw and saline was administered in the other paw. Paw thickness was measured by calipers immediately after injection. 15 minutes later (30 minutes after anti-IgE), paw thickness was measured again and mice were sacrificed by decapitation. Paw tissue was collected, dried for 24 hours at 50° C., and weighed. Evans Blue was extracted by a 24 hour incubation in formamide at 50° C., and the O.D. was read at 620 nm using a spectrophotometer. For studies using ketotifen, mice were injected i.p. with 25 μl of a 10 mg/ml solution of ketotifen at the same time as pentobarbital.

LAD2 human mast cells = experiment: LAD2 degranulation assay (β-hexosaminidase release), with MrgprX2 siRNA knockdown; format: cell-based; conditions: for β-hexosaminidase release in MrgprX2 siRNA vs control siRNA cells: compound 48/80 0.1, mastoparan 5, icatibant 10, atracurium 25, ciprofloxacin 75 μg/ml
Description: LAD2 cells were sensitized for 20 hours with 0.5 μg/ml biotin-conjugated human IgE (Abbiotec). Cells were washed, resuspended in Hepes buffer (10 mM HEPES, 137 mM NaCl, 2.7 mM KCl, 0.38 mM Na2HPO4.7H2O, 5.6 mM glucose, 1.8 mM CaCl2.H2O, 1.3 mM MgSO4.7H2O, 0.4% BSA, pH 7.4) at 0.025×10^6 per well, and then stimulated with 0.1 μg/ml streptavidin (Life Technologies) or other agonists at the indicated concentrations for 30 minutes at 37° C./5% CO2. The β-hexosaminidase released into the supernatants and in cell lysates was quantified by hydrolysis of p-nitrophenyl N-acetyl-β-D-glucosamide (Sigma-Aldrich) in 0.1 M sodium citrate buffer (pH 4.5) for 90 minutes at 37° C. The percentage of β-hexosaminidase release was calculated as a percent of total content.
LAD2 cells were washed with medium, suspended at 0.5×10^6 cells per well, and transfected with 100 nm MrgprX2 siRNA and control siRNA in antibiotic-free StemPro medium using Lipofectamine 3000 (Life Technologies) according to the manufacturer's instruction at 37° C./5% CO2. At 48 hours, knockdown was confirmed by reverse-transcriptase PCR, and the cells were used for degranulation assays.

peritoneal mast cells = experiment: Mouse peritoneal mast cell histamine release assay; format: cell-based; conditions: WT vs MrgprB2^MUT peritoneal mast cells
Description: Mast cells were purified as with the calcium imaging assay and allowed to recover for 2 hours in DMEM with 10% FBS and 25 ng/ml mouse stem cell factor in a 37° C. incubator with 5% CO2. Cells were then spun down, resuspended in CIB, counted, and plated at 300 cells/well in 75 μl CIB in 96-well plates coated with 20 μg/ml fibronectin (Sigma). They were allowed to adhere to the substrate for 45 minutes at 37° C. in atmospheric conditions (i.e. CO2 levels were not adjusted) before assay. […] After 5 minutes, 40 μl of supernatant was aspirated, diluted with 40 μl CIB and frozen at −80° C. until histamine levels were determined. Anti-IgE treatment was similar, except that cells were incubated for 30 minutes at 37° C. after anti-IgE was added before aspiration of supernatant. Histamine content was determined by using an HTRF histamine assay kit (Cisbio Assays) according to the manufacturer's instructions.

[1] = Drug preparation and storage observations; format: physicochemical
Description: Propranolol also was prepared fresh on the day of the experiment to minimize the chances of a loss in potency. All fluoroquinolones except levofloxacin were dissolved into CIB adjusted to pH 3.5. All other drugs were prepared as 100×-1000× aliquots and stored at −80° C. before thawing at 4° C. and diluting into calcium imaging buffer or saline.

MrgprB2 = molecular target: T1, MrgprB2 (Mus musculus, UniProt Q3KNA1); experiment: Calcium imaging / EC50 determination in HEK293 cells expressing MrgprB2 (MrgprB2-HEK); format: cell-based; conditions: HEK293 cells heterologously expressing MrgprB2
T1 construct: expressed in transfected cells
T1 sequence (Q3KNA1 1-338): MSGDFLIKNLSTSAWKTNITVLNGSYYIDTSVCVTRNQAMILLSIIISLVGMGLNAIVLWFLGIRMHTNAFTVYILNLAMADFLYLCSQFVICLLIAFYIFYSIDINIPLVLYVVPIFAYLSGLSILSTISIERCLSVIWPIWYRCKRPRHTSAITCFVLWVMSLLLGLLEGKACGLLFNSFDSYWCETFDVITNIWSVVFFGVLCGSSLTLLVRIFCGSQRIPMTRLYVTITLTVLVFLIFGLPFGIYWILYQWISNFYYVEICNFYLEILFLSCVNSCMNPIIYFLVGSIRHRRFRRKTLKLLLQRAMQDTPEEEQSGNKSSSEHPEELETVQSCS
Description: In initial screens, HEK293 cells (not tested for Mycoplasma but rapidly dividing) were transiently transfected with gene constructs including a C-terminal FLAG tag, and plated on 100 μg/ml poly-D-lysine coated glass cover slips six hours after transfection. […] Later experiments utilized cell lines stably expressing receptors along with transient or stable expression of the promiscuous G protein Gα15. […] Unless otherwise specified, drugs were perfused into the chamber for 45 to 60 seconds and responses were monitored at 5-second intervals for an additional 60-90 seconds.
HEK293 cells stably expressing Galpha15 and either MrgprB2 or MrgprX2 were plated at 4×10^4 cells per well in 96-well plates and incubated overnight. […] Cells were incubated at 37° C. for 60 minutes, and allowed to recover for 15 minutes at room temperature before imaging in a Flexstation 3 (Molecular Devices). Wells were imaged according to manufacturer's specifications for 120 seconds, with 50 μl of test substances at 3× concentration added 30 seconds after imaging began. Responses were determined by subtracting the minimum signal from the maximum signal. Substances were tested in duplicate wells, the signals were averaged, and EC50s were determined for each trial by normalizing to the peak response to the substance in that trial.

[2] = tested on: mouse peritoneal mast cells; experiment: Peritoneal mast cell Fluo-4 calcium imaging, WT vs MrgprB2^MUT; format: cell-based; conditions: for activation / responsiveness of peritoneal mast cells, WT vs MrgprB2^MUT: Fluo-4 imaging, concentrations per FIG. 2A, 2E, 3A, 4C, 4E, 11 legends
Description: Adult male and female mice 2-5 months of age were sacrificed through CO2 inhalation. A total of 12 mls of ice cold mast cell dissociation media (MCDM; HBSS with 3% fetal bovine serum and 10 mM HEPES, pH 7.2) were used to make two sequential peritoneal lavages, which were combined and cells were spun down at 200 g. The pellet from each mouse was resuspended in 2 mls MCDM, layered over 4 mls of an isotonic 70% Percoll suspension (2.8 mls Percoll, 320 μls 10×HBSS, 40 μl 1 M HEPES, 830 μl MCDM), and spun down for 20 minutes, 500 g, 4° C. Mast cells were recovered in the pellet. Purity was >95%, as assayed by avidin staining and by morphology. Mast cells were resuspended at 5×10^5-1×10^6 cells/ml in DMEM with 10% fetal bovine serum and 25 ng/ml recombinant mouse stem cell factor (Sigma), and plated onto glass cover slips coated with 30 μg/ml fibronectin (Sigma). For counting, instead of plating, suspended mast cells were diluted 1/10 and affixed to slides by spinning at 1000 rpm for 5 minutes at 4° C. on a CytoSpin (Thermo Scientific).
For imaging, after two hours of incubation at 37° C., 5% CO2, mast cells were loaded with Fluo-4 along with 0.02% Pluronic F-127 for 30 minutes at room temperature, washed 3 times in CIB and used immediately for imaging. Cells were used within two hours of loading. Cells were identified as responding if the [Ca^2+]i rose by at least 50% for at least 10 seconds, which clearly distinguishes a ligand-induced response from random flickering events. Average traces were calculated by taking the average response from each cell in a mouse, and averaging those.

## NC(N)=NCCC[C@@H](N)C(=O)N[C@@H](CCCN=C(N)N)C(=O)N1CCC[C@H]1C(=O)N1C[C@H](O)C[C@H]1C(=O)NCC(=O)N[C@@H](Cc1cccs1)C(=O)N[C@@H](CO)C(=O)N1Cc2ccccc2C[C@@H]1C(=O)N1[C@H](C(=O)N[C@@H](CCCN=C(N)N)C(=O)O)C[C@@H]2CCCC[C@@H]21 [icatibant]
WT and MrgprB2^MUT mice; icatibant at the clinical concentration, intraplantar 10 mg/ml, 5 μl, 15 minutes
  hindpaw extravasation and swelling in WT mice but not in MrgprB2^MUT mice: induced extensive extravasation and swelling
WT and MrgprB2^MUT mice; icatibant intraplantar, no ketotifen pretreatment, n=4
  increase in paw thickness, without ketotifen: 40.7±2.1%
LAD2 human mast cells
  β-hexosaminidase release in MrgprX2 siRNA vs control siRNA cells: significantly reduced
Peritoneal mast cells
  histamine release from WT peritoneal mast cells (MrgprB2^MUT released substantially less): induced histamine release

## COc1cc2c3cc1Oc1cc(ccc1O)C[C@@H]1c4c(cc(OC)c(O)c4Oc4ccc(cc4)C[C@@H]3N(C)CC2)CC[N+]1(C)C [tubocurarine]
[1]
  stability of potency of solutions: susceptible to oxidation and/or freeze-thaw effects

## CSCC[C@H](NC(=O)[C@H](CC(C)C)NC(=O)CNC(=O)[C@H](Cc1ccccc1)NC(=O)[C@H](Cc1ccccc1)NC(=O)[C@H](CCC(N)=O)NC(=O)[C@H](CCC(N)=O)NC(=O)[C@@H]1CCCN1C(=O)[C@H](CCCCN)NC(=O)[C@@H]1CCCN1C(=O)[C@@H](N)CCCNC(=N)N)C(N)=O [Substance P]
MrgprB2
  response of MrgprB2-HEK cells ([Ca2+]i): responded

## insulin: Recombinant human insulin from Roche, negative control
[2]
  activation / responsiveness of peritoneal mast cells, WT vs MrgprB2^MUT: had no effect; also recorded: not significant

## CCN(CC)CCCC(C)Nc1ccnc2cc(Cl)ccc12 (stereo not shown) [chloroquine]
MrgprB2
  response of MrgprB2-HEK cells ([Ca2+]i): no response

## streptavidin: stimulus for biotin-conjugated human IgE sensitized LAD2 cells
LAD2 human mast cells; 0.1 μg/ml streptavidin, biotin-conjugated human IgE sensitized LAD2 cells
  β-hexosaminidase release: 71.3±1.8 % release

## cortistatin
[2]
  activation / responsiveness of peritoneal mast cells, WT vs MrgprB2^MUT: strongly activated WT but not MrgprB2^MUT mast cells

## COc1cc2c(cc1OC)[C@@H](Cc1cc(OC)c(OC)c(OC)c1)[N+](C)(CCCOC(=O)CC/C=C/CCC(=O)OCCC[N+]1(C)CCc3cc(OC)c(OC)cc3[C@H]1Cc1cc(OC)c(OC)c(OC)c1)CC2 (stereo partly shown) [mivacurium]
[1]
  stability of potency of solutions: susceptible to oxidation and/or freeze-thaw effects

## CC[C@H](C)[C@H](N)C(=O)N[C@@H](CC(N)=O)C(=O)N[C@@H](CC(C)C)C(=O)N[C@@H](CCCCN)C(=O)N[C@@H](C)C(=O)N[C@@H](CC(C)C)C(=O)N[C@@H](C)C(=O)N[C@@H](C)C(=O)N[C@@H](CC(C)C)C(=O)N[C@@H](C)C(=O)N[C@@H](CCCCN)C(=O)N[C@@H](CCCCN)C(=O)N[C@H](C(=O)N[C@@H](CC(C)C)C(N)=O)[C@@H](C)CC [mastoparan]
LAD2 human mast cells
  β-hexosaminidase release in MrgprX2 siRNA vs control siRNA cells: significantly reduced
Peritoneal mast cells
  histamine release from WT peritoneal mast cells (MrgprB2^MUT released substantially less): induced histamine release

## CC[C@H](C)[C@H](NC(=O)[C@H](CC(=O)O)NC(=O)[C@H](CC(C)C)NC(=O)[C@H](Cc1c[nH]cn1)NC(=O)[C@@H]1CSSC[C@H](N)C(=O)N[C@@H](CO)C(=O)N[C@H]2CSSC[C@H](NC(=O)[C@H](CCC(=O)O)NC(=O)[C@H](CCCCN)NC(=O)[C@H](CC(=O)O)NC(=O)[C@H](CCSC)NC(=O)[C@H](CC(C)C)NC(=O)[C@H](CO)NC(=O)[C@H](CO)NC2=O)C(=O)N[C@@H](C(C)C)C(=O)N[C@@H](Cc2ccc(O)cc2)C(=O)N[C@@H](Cc2ccccc2)C(=O)N1)C(=O)N[C@H](C(=O)N[C@@H](Cc1c[nH]c2ccccc12)C(=O)O)[C@@H](C)CC [endothelin]
[2]
  activation / responsiveness of peritoneal mast cells, WT vs MrgprB2^MUT: comparable
[2]; listed as Endothelin
  activation / responsiveness of peritoneal mast cells, WT vs MrgprB2^MUT: not significantly different

## COc1ccc(CC2c3cc(OC)c(OC)cc3CC[N+]2(C)CCC(=O)OCCCCCOC(=O)CC[N+]2(C)CCc3cc(OC)c(OC)cc3C2Cc2ccc(OC)c(OC)c2)cc1OC (stereo not shown) [atracurium]
[1]
  stability of potency of solutions: susceptible to oxidation and/or freeze-thaw effects
LAD2 human mast cells
  β-hexosaminidase release in MrgprX2 siRNA vs control siRNA cells: significantly reduced
Peritoneal mast cells
  histamine release from WT peritoneal mast cells (MrgprB2^MUT released substantially less): induced histamine release

## CC(C)C[C@H](NC(=O)[C@H](C)NC(=O)[C@H](Cc1c[nH]c2ccccc12)NC(=O)[C@H](CCCCN)NC(=O)[C@H](CC(N)=O)NC(=O)[C@H](Cc1c[nH]c2ccccc12)NC(=O)[C@H](CCCCN)NC(=O)[C@H](CCCCN)NC(=O)[C@H](CCCNC(=N)N)NC(=O)[C@@H](N)Cc1ccccc1)C(=O)N[C@@H](CO)C(=O)N[C@@H](CCCNC(=N)N)C(N)=O [PAMP (9-20)]
[2]
  activation / responsiveness of peritoneal mast cells, WT vs MrgprB2^MUT: strongly activated WT but not MrgprB2^MUT mast cells
MrgprB2
  response of MrgprB2-HEK cells ([Ca2+]i): responded

## BAMS-22: MrgprX1 and MrgprC11 agonist Bovine Adrenal Medulla derived peptide, fragment 8-22 (VGRPEWWMDYQKRYG)
[2]; 500 nM, Fluo-4, p=0.39
  percentages of peritoneal mast cells responding, differences: not significant

## CN1CCC(=C2c3ccccc3CC(=O)c3sccc32)CC1 [ketotifen]
WT and MrgprB2^MUT mice; icatibant intraplantar after ketotifen i.p. pretreatment (25 μl of 10 mg/ml), n=4
  increase in paw thickness, with ketotifen: 3.1±0.6%
